The values below come from ChEMBL document CHEMBL3217645, “Online parallel fragment screening and rapid hit exploration for nicotinic acetylcholine receptors” (Medchemcomm, 2011).

The Ki is a measure of affinity in units of concentration, obtained from inhibition or displacement. By pKi is commonly meant −log10 of the Ki, conventionally taken in molar units.

The structures appear in SMILES notation.

Experiment [1] in a line: Selectivity ratio of Ki for Lymnaea stagnalis AChBP over Ki for Aplysia californica AChBP.
For experiment [2], the target named is Acetylcholine-binding protein (Lymnaea stagnalis, UniProt P58154). The experiment in a line: Displacement of [3H]epibatadine from Lymnaea stagnalis recombinant C-terminal His-tagged AChBP expressed in baculovirus infected SF9 cells after 1.5 hrs by scintillation counting analysis. (In general: Loss of bound radioactivity is the signal in a displacement assay; it reports binding, not function.)

Experiment [3] in a line: Displacement of [3H]epibatadine from Aplysia californica recombinant C-terminal His-tagged AChBP expressed in baculovirus infected SF9 cells after 1.5 hrs by scintillation counting analysis.
Experiment [4] concerns the target Neuronal acetylcholine receptor subunit alpha-7 (Homo sapiens, UniProt P36544). Description: Displacement of [3H]epibatadine from human alpha7 nAChR expressed in human SH-SY5Y cells after 1.5 hrs by scintillation counting analysis. In kind it is cell-based.
For experiment [5], the target named is Neuronal acetylcholine receptor; alpha4/beta2 (Homo sapiens, UniProt P17787+P43681). The experiment in a line: Displacement of [3H]epibatadine from human alpha4beta2 nAChR expressed in HEK293T cells after 1.5 hrs by scintillation counting analysis. Type of experiment: cell-based, HEK-293T.
A short description of experiment [6]: Selectivity ratio of Ki for Lymnaea stagnalis recombinant C-terminal His-tagged AChBP to Ki for human alpha7 nAChR.

Chain of Neuronal acetylcholine receptor subunit alpha-7 (P36544 whole entry): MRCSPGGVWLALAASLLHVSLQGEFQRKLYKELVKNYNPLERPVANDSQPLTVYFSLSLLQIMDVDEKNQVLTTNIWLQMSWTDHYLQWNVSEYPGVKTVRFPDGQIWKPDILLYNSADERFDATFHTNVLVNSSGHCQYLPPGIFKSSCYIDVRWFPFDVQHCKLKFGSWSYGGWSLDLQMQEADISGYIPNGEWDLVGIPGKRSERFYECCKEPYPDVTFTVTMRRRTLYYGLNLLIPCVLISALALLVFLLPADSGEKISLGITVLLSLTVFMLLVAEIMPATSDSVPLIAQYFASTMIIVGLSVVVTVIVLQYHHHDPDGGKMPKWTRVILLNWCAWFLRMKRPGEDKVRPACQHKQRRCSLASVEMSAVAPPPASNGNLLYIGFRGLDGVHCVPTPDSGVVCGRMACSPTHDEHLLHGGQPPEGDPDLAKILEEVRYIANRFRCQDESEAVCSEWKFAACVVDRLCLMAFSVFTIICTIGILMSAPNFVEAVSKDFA
Chain of Acetylcholine-binding protein (P58154 whole entry): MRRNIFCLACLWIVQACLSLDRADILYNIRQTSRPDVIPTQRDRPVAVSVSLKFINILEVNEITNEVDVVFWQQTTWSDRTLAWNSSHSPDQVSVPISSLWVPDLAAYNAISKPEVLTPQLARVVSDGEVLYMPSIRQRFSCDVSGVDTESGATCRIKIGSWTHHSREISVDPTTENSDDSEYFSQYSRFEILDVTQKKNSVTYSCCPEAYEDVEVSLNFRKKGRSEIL
Chain of Neuronal acetylcholine receptor; alpha4/beta2 (P17787 whole entry): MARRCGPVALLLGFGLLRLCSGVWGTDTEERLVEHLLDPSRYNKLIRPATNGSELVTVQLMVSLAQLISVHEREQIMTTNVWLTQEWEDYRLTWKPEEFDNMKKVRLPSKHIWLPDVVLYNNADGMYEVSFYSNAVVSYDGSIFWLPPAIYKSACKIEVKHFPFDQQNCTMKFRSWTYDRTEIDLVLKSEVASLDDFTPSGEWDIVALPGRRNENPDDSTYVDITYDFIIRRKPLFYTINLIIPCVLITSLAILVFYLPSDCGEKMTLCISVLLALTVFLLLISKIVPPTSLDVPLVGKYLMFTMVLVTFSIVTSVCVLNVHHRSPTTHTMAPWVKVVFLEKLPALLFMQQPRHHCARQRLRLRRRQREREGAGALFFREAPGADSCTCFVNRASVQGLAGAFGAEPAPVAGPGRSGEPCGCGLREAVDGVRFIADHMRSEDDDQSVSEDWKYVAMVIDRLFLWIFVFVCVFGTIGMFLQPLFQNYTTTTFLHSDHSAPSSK
Chain of Neuronal acetylcholine receptor; alpha4/beta2 (P43681 whole entry): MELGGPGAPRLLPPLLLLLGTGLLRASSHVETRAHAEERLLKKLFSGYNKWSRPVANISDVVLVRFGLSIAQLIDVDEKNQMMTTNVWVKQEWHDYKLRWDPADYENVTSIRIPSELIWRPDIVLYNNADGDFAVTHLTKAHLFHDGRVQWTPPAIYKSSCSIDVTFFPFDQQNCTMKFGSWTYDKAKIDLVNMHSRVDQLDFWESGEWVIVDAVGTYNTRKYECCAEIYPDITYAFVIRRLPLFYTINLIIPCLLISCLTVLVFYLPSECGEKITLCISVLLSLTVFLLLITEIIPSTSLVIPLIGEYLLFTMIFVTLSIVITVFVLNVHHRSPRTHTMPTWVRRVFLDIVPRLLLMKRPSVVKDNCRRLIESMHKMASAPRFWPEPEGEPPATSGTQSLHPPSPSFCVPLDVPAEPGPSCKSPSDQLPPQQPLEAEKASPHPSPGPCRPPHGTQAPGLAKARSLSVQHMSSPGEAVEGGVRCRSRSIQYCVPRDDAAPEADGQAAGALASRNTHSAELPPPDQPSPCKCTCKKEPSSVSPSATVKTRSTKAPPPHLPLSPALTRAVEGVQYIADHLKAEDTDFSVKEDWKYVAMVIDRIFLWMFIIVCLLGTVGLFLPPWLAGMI

On to `C[C@H](NC(=O)[C@H](CS)NC(=O)[C@H](CCCNC(=N)N)NC(=O)[C@@H]1CCCN1C(=O)[C@H](CC(=O)O)NC(=O)[C@H](CO)NC(=O)[C@H](CS)NC(=O)[C@H](CS)NC(=O)CN)C(=O)N[C@@H](Cc1c[nH]c2ccccc12)C(=O)N[C@@H](CCCNC(=N)N)C(=O)N[C@@H](CS)C(N)=O`, for which the Ratio Ki in experiment [1] is greater than 6000.
For the molecule `CC(C)N1CCC(=NO)CC1`, the Ratio Ki in experiment [1] is greater than 9.5. The results for the Ki in experiment [2], in experiment [4] and in experiment [5] were 10.5 µM, 10.2 µM and greater than 100 µM, respectively. Moreover, in experiment [3], the pKi was less than 4.
For `Fc1ccc(F)c(NN=C2CCN(CCc3ccccc3)CC2)c1`, the results for the Ki in experiment [2] and in experiment [4] were 0.0891 µM and greater than 100 µM, respectively.
As for `CN1[C@@H]2CC[C@H]1C/C(=N\Nc1ccccc1Cl)C2`, the Ki is 0.204 µM in experiment [2] and 2.19 µM in experiment [4]. Besides, the Ratio Ki in experiment [6] was 5.
